Publication PMC10449633 (Nature Chemical Biology, 2023)
Several values for one entry are separate records, joined by “and”; a condition that tells them apart may be missing. Identical values can stand only once. Like-named read-outs stand apart in the source and are kept apart here. Square brackets hold non-standard residues; d marks the D form. Peptide text beside a SMILES is read from it. NMeTrp(1-(4-Br-benzyl)) = CN[C@@H](Cc1cn(Cc2ccc(Br)cc2)c2ccccc12)C(=O)O; Butanoyl(2R-oxy,4-CN) = N#CCC[C@@H](O)C(=O)O; Abu(4,4,4-F3) = N[C@@H](CC(F)(F)F)C(=O)O; NMeL = CN[C@@H](CC(C)C)C(=O)O; NMeA = CN[C@@H](C)C(=O)O

Tests used:
[1] = target: T1, Sec61 (Homo sapiens, UniProt P61619); assay: cell-based
T1 construct: endogenous in cells
Target sequence in this assay (P60059 whole entry): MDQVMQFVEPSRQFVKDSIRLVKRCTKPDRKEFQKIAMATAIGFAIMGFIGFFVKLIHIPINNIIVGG
Target sequence in this assay (P61619 whole entry): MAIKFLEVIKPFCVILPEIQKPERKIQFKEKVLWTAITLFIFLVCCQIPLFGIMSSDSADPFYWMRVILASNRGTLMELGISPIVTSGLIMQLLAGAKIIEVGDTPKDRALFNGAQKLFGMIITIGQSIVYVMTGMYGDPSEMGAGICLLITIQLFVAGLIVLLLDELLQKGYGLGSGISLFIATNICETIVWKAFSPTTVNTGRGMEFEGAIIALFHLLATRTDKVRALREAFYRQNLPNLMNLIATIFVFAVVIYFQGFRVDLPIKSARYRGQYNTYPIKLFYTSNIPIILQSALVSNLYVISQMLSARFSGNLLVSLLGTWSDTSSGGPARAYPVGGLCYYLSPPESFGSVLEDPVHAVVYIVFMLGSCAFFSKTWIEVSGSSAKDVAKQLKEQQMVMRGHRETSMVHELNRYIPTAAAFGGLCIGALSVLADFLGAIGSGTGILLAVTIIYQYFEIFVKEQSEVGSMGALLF
Target sequence in this assay (P60468 whole entry, further chain): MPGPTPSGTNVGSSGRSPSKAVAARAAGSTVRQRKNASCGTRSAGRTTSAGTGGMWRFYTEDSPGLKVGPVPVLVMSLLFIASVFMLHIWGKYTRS

[2] = target: T1, Sec61; assay: signal peptide-GLuc (SP-GLuc) reporter panel, 89 constructs; type: cell-based; conditions: read-out: IC50
Text: The heat map depicts IC50 values calculated from each SP-GLuc dose–response curve. d, Arthritis was induced in BALB/c mice with antibodies specific for type II collagen (mAb) on day 0 and endotoxin on day 3. On day 4, when the disease was present in all animals, mice were randomized and treated for 2 weeks with thrice weekly (QODx3) or weekly (QW) intravenous administration of vehicle or KZR-8445 or intraperitoneal administration of dexamethasone. Clinical scores (0–4 per paw; n = 10 per group) and body weights were followed until day 14. Data are presented as mean values ± s.d. mAb, monoclonal antibody. Source data
To investigate the effects of KZR-8445 on secretory and membrane protein biogenesis and to establish Sec61α as the relevant target, we quantified the secretion of a doxycycline-inducible Gaussia luciferase (GLuc) reporter fused to the C-terminus of two full-length pro-inflammatory cytokines, interleukin-2 (IL-2) (which contains a cleavable signal peptide) and tumor necrosis factor-alpha (TNFα) (which contains an N-terminal transmembrane anchor). […] KZR-8445 is structurally related to CT8, which discriminates among Sec61 clients based largely on their N-terminal signal peptide. […] We also directly compared KZR-8445 to mycolactone A/B, a structurally distinct and relatively client-nonselective Sec61 inhibitor[8],[25], for their ability to discriminate between vascular cell adhesion molecule (VCAM) and preprolactin (pPL) signal peptides.
Target sequence in this assay (P61619 whole entry): as the sequence (P61619 whole entry) above
Target sequence in this assay (P60059 whole entry, further chain): as the sequence (P60059 whole entry) above
Target sequence in this assay (P60468 whole entry, further chain): as the sequence (P60468 whole entry, further chain) above

## CC(C)C[C@@H]1NC(=O)[C@H](Cc2cn(Cc3ccc(Br)cc3)c3ccccc23)N(C)C(=O)[C@H](CC(F)(F)F)NC(=O)[C@H](CC(C)C)N(C)C(=O)[C@H](CC(F)(F)F)NC(=O)[C@@H](CCC#N)OC(=O)[C@H](C)N(C)C1=O [KZR-0508445] (cyclo(L[NMeA][Butanoyl(2R-oxy,4-CN)][Abu(4,4,4-F3)][NMeL][Abu(4,4,4-F3)][NMeTrp(1-(4-Br-benzyl))]))
[1]; HER3, Concentration 0.32
  GLuc reporter raw signal (replicates): 2935000 and 2941500 and 3013900
[1]; HER3, Concentration 8
  GLuc reporter raw signal (replicates): 2659500 and 2842600
[1]; HER3, Concentration 40
  GLuc reporter raw signal (replicates): 1960600 and 2026300 and 1990500
[1]; HER3, Concentration 200
  GLuc reporter raw signal (replicates): 739710 and 740510 and 713180
[1]; HER3, Concentration 1000
  GLuc reporter raw signal (replicates): 117630 and 116630 and 119290
[1]; HER3, Concentration 5000
  GLuc reporter raw signal (replicates): 40623 and 42704 and 41387
[1]; HER3, Concentration 25000
  GLuc reporter raw signal (replicates): 40492 and 42302 and 41156
[1]; IL2, Concentration 0.32
  GLuc reporter raw signal (replicates): 2694100 and 2451600 and 2682900
[1]; IL2, Concentration 8
  GLuc reporter raw signal (replicates): 2155800 and 2012200 and 2217000
[1]; IL2, Concentration 40
  GLuc reporter raw signal (replicates): 1384000 and 1357800 and 1362400
[1]; IL2, Concentration 200
  GLuc reporter raw signal (replicates): 418080 and 431560 and 427460
[1]; IL2, Concentration 1000
  GLuc reporter raw signal (replicates): 69620 and 75099 and 80209
[1]; IL2, Concentration 5000
  GLuc reporter raw signal (replicates): 24453 and 26590 and 27282
[1]; IL2, Concentration 25000
  GLuc reporter raw signal (replicates): 27001 and 26299 and 26941
[1]; PD1, Concentration 0.32
  GLuc reporter raw signal (replicates): 1085300 and 1145000 and 1139600
[1]; PD1, Concentration 8
  GLuc reporter raw signal (replicates): 871620 and 904180 and 884200
[1]; PD1, Concentration 40
  GLuc reporter raw signal (replicates): 505580 and 506170 and 515230
[1]; PD1, Concentration 200
  GLuc reporter raw signal (replicates): 149930 and 159870 and 181940
[1]; PD1, Concentration 1000
  GLuc reporter raw signal (replicates): 25647 and 33346 and 33065
[1]; PD1, Concentration 5000
  GLuc reporter raw signal (replicates): 10483 and 12045 and 12165
[1]; PD1, Concentration 25000
  GLuc reporter raw signal (replicates): 10613 and 11144 and 10202
[1]; Prolactin, Concentration 0.32
  GLuc reporter raw signal (replicates): 9123600 and 9441100 and 9520300
[1]; Prolactin, Concentration 40
  GLuc reporter raw signal (replicates): 8673700 and 8850000 and 8412700
[1]; Prolactin, Concentration 200
  GLuc reporter raw signal (replicates): 7415400 and 7981400 and 8354800
[1]; Prolactin, Concentration 1000
  GLuc reporter raw signal (replicates): 4269000 and 4043400 and 4397300
[1]; Prolactin, Concentration 5000
  GLuc reporter raw signal (replicates): 1501600 and 1605300 and 3990200
[1]; Prolactin, Concentration 25000
  GLuc reporter raw signal (replicates): 1205700 and 1279300 and 1375600
[1]; TNFa, Concentration 0.32
  GLuc reporter raw signal (replicates): 190530 and 188640 and 185180
[1]; TNFa, Concentration 8
  GLuc reporter raw signal (replicates): 168690 and 159800
[1]; TNFa, Concentration 40
  GLuc reporter raw signal (replicates): 128960 and 129480 and 142690
[1]; TNFa, Concentration 200
  GLuc reporter raw signal (replicates): 58379 and 60837 and 65010
[1]; TNFa, Concentration 1000
  GLuc reporter raw signal (replicates): 21193 and 19058 and 21945
[1]; TNFa, Concentration 5000
  GLuc reporter raw signal (replicates): 10351 and 10241 and 10171
[1]; TNFa, Concentration 25000
  GLuc reporter raw signal (replicates): 9540 and 9711 and 9400
[2]; ADPGK signal peptide-GLuc reporter
  IC50: 540 nM
[2]; ANGPTL3 signal peptide-GLuc reporter
  IC50: 49.4 nM
[2]; APOC1 signal peptide-GLuc reporter
  IC50: 135 nM
[2]; APP signal peptide-GLuc reporter
  IC50: 449 nM
[2]; AXL signal peptide-GLuc reporter
  IC50: 13.8 nM
[2]; BCAN signal peptide-GLuc reporter
  IC50: 142 nM
[2]; C1S signal peptide-GLuc reporter
  IC50: 383 nM
[2]; CALCA signal peptide-GLuc reporter
  IC50: 721 nM
[2]; CALCB signal peptide-GLuc reporter
  IC50: 972 nM
[2]; CD40 signal peptide-GLuc reporter
  IC50: 11300 nM
[2]; CD47 signal peptide-GLuc reporter
  IC50: 373 nM
[2]; CD96 signal peptide-GLuc reporter
  IC50: 29.2 nM
[2]; CD274 signal peptide-GLuc reporter
  IC50: 93.3 nM
[2]; CDH1 signal peptide-GLuc reporter
  IC50: 811 nM
[2]; CDH2 signal peptide-GLuc reporter
  IC50: 15.5 nM
[2]; CDH5 signal peptide-GLuc reporter
  IC50: 76 nM
[2]; CNPY2 signal peptide-GLuc reporter
  IC50: 394 nM
[2]; CPD signal peptide-GLuc reporter
  IC50: 694 nM
[2]; CR1L signal peptide-GLuc reporter
  IC50: 61.3 nM
[2]; CSF2RB signal peptide-GLuc reporter
  IC50: 652 nM
[2]; CTLA4 signal peptide-GLuc reporter
  IC50: 343 nM
[2]; DDRGK1 signal peptide-GLuc reporter
  IC50: 1850 nM
[2]; DMKN signal peptide-GLuc reporter
  IC50: 2630 nM
[2]; DNAJB11 signal peptide-GLuc reporter
  IC50: 4360 nM
[2]; ERBB2 signal peptide-GLuc reporter
  IC50: 536 nM
[2]; F3 signal peptide-GLuc reporter
  IC50: 162 nM
[2]; FGF23 signal peptide-GLuc reporter
  IC50: 28.2 nM
[2]; FLT3 signal peptide-GLuc reporter
  IC50: 360 nM
[2]; FNDC10 signal peptide-GLuc reporter
  IC50: 726 nM
[2]; FURIN signal peptide-GLuc reporter
  IC50: 4740 nM
[2]; GAS6 signal peptide-GLuc reporter
  IC50: 118 nM
[2]; HJV signal peptide-GLuc reporter
  IC50: 427 nM
[2]; HLA-G signal peptide-GLuc reporter
  IC50: 39.2 nM
[2]; HSPA13 signal peptide-GLuc reporter
  IC50: 1110 nM
[2]; IGF1R signal peptide-GLuc reporter
  IC50: 814 nM
[2]; IL1RAP signal peptide-GLuc reporter
  IC50: 101 nM
[2]; IL4R signal peptide-GLuc reporter
  IC50: 32 nM
[2]; IL4 signal peptide-GLuc reporter
  IC50: 359 nM
[2]; IL5RA signal peptide-GLuc reporter
  IC50: 1320 nM
[2]; IL5 signal peptide-GLuc reporter
  IC50: 1300 nM
[2]; IL6R signal peptide-GLuc reporter
  IC50: 92.3 nM
[2]; IL6ST signal peptide-GLuc reporter
  IC50: 56.5 nM
[2]; IL6 signal peptide-GLuc reporter
  IC50: 155 nM
[2]; IL7 signal peptide-GLuc reporter
  IC50: 5.23 nM
[2]; IL10 signal peptide-GLuc reporter
  IC50: 434 nM
[2]; IL11 signal peptide-GLuc reporter
  IC50: 183 nM
[2]; IL12B signal peptide-GLuc reporter
  IC50: 109 nM
[2]; IL12RB1 signal peptide-GLuc reporter
  IC50: 64.4 nM
[2]; IL13 signal peptide-GLuc reporter
  IC50: 59.1 nM
[2]; IL15RA signal peptide-GLuc reporter
  IC50: 294 nM
[2]; IL15 signal peptide-GLuc reporter
  IC50: 116 nM
[2]; IL17A signal peptide-GLuc reporter
  IC50: 318 nM
[2]; IL17F signal peptide-GLuc reporter
  IC50: 228 nM
[2]; IL17RA signal peptide-GLuc reporter
  IC50: 408 nM
[2]; IL23A signal peptide-GLuc reporter
  IC50: 425 nM
[2]; IL23R signal peptide-GLuc reporter
  IC50: 366 nM
[2]; ITGA3 signal peptide-GLuc reporter
  IC50: 18300 nM
[2]; ITGB3 signal peptide-GLuc reporter
  IC50: 106 nM
[2]; ITGB5 signal peptide-GLuc reporter
  IC50: 89.1 nM
[2]; ITGB7 signal peptide-GLuc reporter
  IC50: 228 nM
[2]; JTB signal peptide-GLuc reporter
  IC50: 25.5 nM
[2]; KRTDAP signal peptide-GLuc reporter
  IC50: 570 nM
[2]; LCN6 signal peptide-GLuc reporter
  IC50: 101 nM
[2]; LDLR signal peptide-GLuc reporter
  IC50: 800 nM
[2]; LILRB2 signal peptide-GLuc reporter
  IC50: 1730 nM
[2]; LRP8 signal peptide-GLuc reporter
  IC50: 681 nM
[2]; MASP2 signal peptide-GLuc reporter
  IC50: 127 nM
[2]; METTL7A signal peptide-GLuc reporter
  IC50: 6900 nM
[2]; NGF signal peptide-GLuc reporter
  IC50: 347 nM
[2]; P3H1 signal peptide-GLuc reporter
  IC50: 72.7 nM
[2]; PCDHA4 signal peptide-GLuc reporter
  IC50: 489 nM
[2]; PCSK9 signal peptide-GLuc reporter
  IC50: 1280 nM
[2]; PDCD1 signal peptide-GLuc reporter
  IC50: 37 nM
[2]; PRKCSH signal peptide-GLuc reporter
  IC50: 186 nM
[2]; PSG8 signal peptide-GLuc reporter
  IC50: 292 nM
[2]; SIRPA signal peptide-GLuc reporter
  IC50: 2030 nM
[2]; SSR2 signal peptide-GLuc reporter
  IC50: 137 nM
[2]; STAB1 signal peptide-GLuc reporter
  IC50: 670 nM
[2]; SUCO signal peptide-GLuc reporter
  IC50: 1450 nM
[2]; TGFB1 signal peptide-GLuc reporter
  IC50: 2210 nM
[2]; TGFB2 signal peptide-GLuc reporter
  IC50: 187 nM
[2]; TGFBR1 signal peptide-GLuc reporter
  IC50: 134 nM
[2]; TIGIT signal peptide-GLuc reporter
  IC50: 590 nM
[2]; TMED10 signal peptide-GLuc reporter
  IC50: 462 nM
[2]; UCN signal peptide-GLuc reporter
  IC50: 5900 nM
